This note sets out measurements from patent US11679097B2, “Combination product containing limonoid compound and biguanide compound” (ZHEJIANG YANGSHENGTANG INSTITUTE OF NATURAL MEDICATION CO., …, priority 2017, dated 2023).

Format in all cases: in vivo
The test system of one experiment is ICR mice. The experiment can be described thus: Body weight, triglycerides and total cholesterol in obesity mouse model (Example 6). Conditions: high-fat feed ICR mice, single administration 0.1 g/kg per day by gavage, two weeks. The source says: Effects of a Limonoid Compound, Metformin or a Combination Thereof on Body Weight, Triglycerides, and Total Cholesterol in an Obesity Mouse Model
In this example, ICR mice were used to complete the experiment for evaluation of lipid lowering and weight loss in animals (body weight, serum cholesterol, and serum triglycerides).
In this example, the limonoid compound was nomilin, and a metformin single administration group, nomilin single administration group, and metformin/nomilin combination administration groups (dose A and B groups) were set, respectively.
Conditions of experimental feeding: ICR mice, purchased from the Animal Center of Zhejiang Academy of Medical Sciences, half male and half female, body weight (20±2 g), fed with basic feed provided by the Animal Center of Zhejiang Medical Academy. It should be noted that the conditions for raising the mice were as follows: the temperature was 23±1° C., the humidity was 55±10%, the lights were turned on between 7 am and 7 pm (the lights were turned off at other time), and the mice were allowed to access to water and feed freely. The daily feeding and management of the animals were under the responsibility of the animal security department, which provided the animals with sufficient padding and fresh drinking water daily.
The ICR mice were randomly divided into the normal group and the high-fat feed group, according to body weight. The normal group was fed with ordinary feed from the beginning to the end of the experiment.
Gavage dose: nomilin at a dose of 0.1 g/kg was gavaged per day for the nomilin group, metformin at a dose of 0.1 g/kg was gavaged per day for the metformin group, nomilin at a dose of 0.05 g/kg and metformin at a dose of 0.05 g/kg were simultaneously gavaged per day for the combination dose group A, nomilin at a dose of 0.1 g/kg and metformin at a dose of 0.1 g/kg were simultaneously gavaged per day for the combination dose group B, the gavage volume was 10 mL/kg, and the normal group and the model group were administrated with 10 mL/kg of distilled water. Two weeks later, the mice were weighed, blood sampled from orbital cavity, measured to determine serum total cholesterol and triglyceride levels, and the average values of each group were obtained. SPSS 16.0 software was used for statistical analysis. The data were expressed as mean and standard deviation. The data before and after were analyzed by t-test, and P<0.05 was considered statistically significant.

Experiment [1] has as its system STZ mice. Kind of experiment: Blood glucose in mouse pancreatic islet β-cell injury model (Example 1). As to conditions: STZ ICR mice; single administration 0.02 g/kg per day by gavage, two weeks; 1 h after last administration. The source says: Effects of a Limonoid Compound, Metformin or a Combination Thereof on Blood Glucose in a Mouse Pancreatic Islet β-Cell Injury Model In this example, a mouse pancreatic islet β-cell injury model was established by modeling ICR mice with streptozotocin (STZ) (referred to the prior art literature: Li Nan et al., Protective effect of pine pollen on kidney damage in diabetic nephropathy mice, Science and Technology Review, 2014, 32 (4/5): 95-99), and used to complete the evaluation of hypoglycemic effect in animals (this model could simulate pancreatic islet β-cell damage state of type I and type II diabetics). […] Conditions of experimental feeding: ICR mice (20±2 g), aged 6 weeks, purchased from Zhejiang Academy of Medical Sciences, and subjected to experimental feeding after 7 days of preliminary feeding. […] The experimental feed was mouse growth-stable feed (GB […]), and the daily feeding and management of the animals were under the responsibility of the animal security department, which provided the animals with sufficient padding and fresh drinking water daily. Experimental grouping: 15 male mice were randomly selected as the normal control group. […] Gavage doses: the gavage dose was 0.02 g/kg per day for the limonin group, the gavage dose was 0.02 g/kg per day for the isolimonic acid group, the gavage dose was 0.02 g/kg per day for the limonin 17-β-D-glucopyranoside group, the gavage dose of metformin was 0.02 g/kg per day for the metformin group, limonin at a dose of 0.01 g/kg and metformin at a dose of 0.01 g/kg were simultaneously gavaged per day for the limonin/metformin combination group, isolimonic acid at a dose of 0.01 g/kg and metformin at a dose of 0.01 g/kg were simultaneously gavaged per day for the isolimonic acid/metformin combination group, limonin 17-β-D-glucopyranoside at a dose of 0.01 g/kg and metformin at a dose of 0.01 g/kg were simultaneously gavaged per day for the limonin 17-β-D-glucopyranoside/metformin combination group, isolimonic acid 17-β-D-glucopyranoside at a dose of 0.01 g/kg and metformin at a dose of 0.01 g/kg were simultaneously gavaged per day for the isolimonic acid 17-β-D-glucopyranoside/metformin combination group, the gavage volume was 10 mL/kg, and the normal group and the model group were administrated with 10 mL/kg of distilled water. […] SPSS 16.0 software was used for statistical analysis. The data were expressed as mean and standard deviation. The data before and after were analyzed by t-test, and P<0.05 was considered statistically significant.

The test system of experiment [2] is STZ mice. The experiment can be described thus: Blood glucose in mouse pancreatic islet β-cell injury model (Example 3). As to conditions: STZ ICR mice; single administration 0.1 g/kg per day by gavage, two weeks; 1 h after last administration. The source says:
Effects of a Limonoid Compound, Metformin or a Combination Thereof on Blood Glucose in a Mouse Pancreatic Islet β-Cell Injury Model In this example, a mouse pancreatic islet β-cell injury model was established by modeling ICR mice with streptozotocin (STZ) (referred to the prior art literature: Li Nan et al., Protective effect of pine pollen on kidney damage in diabetic nephropathy mice, Science and Technology Review, 2014, 32 (4/5): 95-99), and used to complete the evaluation of hypoglycemic effect in animals (this model could simulate pancreatic islet β-cell damage state of type I and type II diabetics). […] Conditions of experimental feeding: ICR mice (20±2 g), aged 6 weeks, purchased from Zhejiang Academy of Medical Sciences, and subjected to experimental feeding after 7 days of preliminary feeding. […] The experimental feed was mouse growth-stable feed (GB […]), and the daily feeding and management of the animals were under the responsibility of the animal security department, which provided the animals with sufficient padding and fresh drinking water daily. Experimental grouping: 15 male mice were randomly selected as the normal control group. […] Gavage doses: the gavage dose was 0.1 g/kg per day for the […] group, the gavage dose was 0.1 g/kg per day for the […] group, the gavage dose was 0.1 g/kg per day for the […]-glucopyranoside group, the gavage dose of metformin was 0.1 g/kg per day for the metformin group, […] dose of 0.05 g/kg and metformin at a dose of 0.05 g/kg were simultaneously gavaged per day for the […]/metformin combination group, […] dose of 0.05 g/kg and metformin at a dose of 0.05 g/kg were simultaneously gavaged per day for the […]/metformin combination group, […]-glucopyranoside at a dose of 0.05 g/kg and metformin at a dose of 0.05 g/kg were simultaneously gavaged per day for the […]-glucopyranoside/metformin combination group, the gavage volume was 10 mL/kg, and the normal group and the model group were administrated with 10 mL/kg of distilled water. […] SPSS 16.0 software was used for statistical analysis. The data were expressed as mean and standard deviation. The data before and after were analyzed by t-test, and P<0.05 was considered statistically significant.

With `CN(C)C(=N)NC(=N)N` [Metformin, N,N-dimethylimidodicarbonimidic diamide, reference compound], the “Body weight gaining rate” value in the experiment with ICR mice came to 11.56%. In the experiment on ICR mice (serum), the Total cholesterol was 3.35 ± 0.07 mmol/L and the Triglycerides was found to be 1.17 ± 0.30 mmol/L. Also, in the experiment with STZ mice [1], the Blood glucose value came out at 22.6 ± 3.9 mmol/L. For the same molecule, in the experiment with STZ mice [2], the Blood glucose value was determined as 17.2 ± 3.9 mmol/L.
